Laboratory results: patent publication US9598463B2, “Mucin hypersecretion inhibitors and methods of use” (BIOMARCK PHARMACEUTICALS, LTD., priority 2005, dated 2017)

What was measured:
[1] = system: ATP-induced mucin hypersecretion; experiment: Aerosolized Ac-peptide 106 on ATP-induced mucin hypersecretion in mouse model with goblet cell metaplasia; assay type: in vivo, BALB/c mice; details: aerosol
Method: The efficacy of aerosolized Ac-peptide 106 on mucin hypersecretion in a mouse model of asthma was determined at two concentrations. Briefly, 5- to 8 week old BALB/c mice were immunized weekly as described above in Example 1A for 3 weeks with ovalbumin. On Day 28 the mice were challenged with aerosolized 2.5% ovalbumin in normal saline for 30 minutes. Three days after ovalbumin challenge, each group of mice (n=2) was administered an aerosolized isotonic solution of Ac-peptide 106 at […] or 30 mM for 1 hour with an AeroMist CA-209 nebulizer. The mass median aerodynamic diameter of the aerosol particles was 1.49 um (range 0.4 to 4.7 urn). Given these concentrations of Ac-peptide 106 and this particle size, the calculated pulmonary deposition of Ac-peptide 106 was 0.38 mg/kg body weight and 1.1 mg/kg body weight, respectively.
Ac-peptide 106 administration was immediately followed by aerosol administration of the secretagogue adenosine triphosphate (ATP) ([…] in saline) for 5 minutes. The mice were sacrificed, and the lungs were harvested within 20 minutes. The lungs were rinsed with saline, fixed with paraformaldehyde, embedded in paraffin, and sectioned. The sections were quantitatively analyzed for the presence of mucin by quantitative immunohistochemistry according to the method of Evans et al. (Am. J. Respir. Cell Mol. Biol. Vol. 31, pp 382-394, 2004).

HBE1 cells = experiment: PMA-induced mucin hypersecretion in human bronchial epithelial cells (air/liquid interface, MUC5A ELISA); assay type: cell-based; details: pretreatment with 25 μM peptide, then 0.5 μM PMA
Method: HBE1 is a papilloma virus-transformed human bronchial epithelial cell line capable of mucin secretion when cultured in air/liquid interface. HBE1 cells were cultured in the air/liquid interface as described previously (Li et al, J. Biol. Chem., volume 276, pp 40982-40990, 2001). Briefly, HBE1 cells were cultured in air/liquid interface by seeding an appropriate number of cells in 12-well Transwell clear culture inserts (Costar, Cambridge, Mass.) that were thinly coated with rat tail collagen, type I (Collaborative Biomedical, Bedford, Mass.). Cells were initially cultured submerged in medium in a humidified 95% air, 5% CO2 environment for 5-7 days until nearly confluent. At that time, the air/liquid interface was created by removing the apical medium and feeding cells basalaterally. Medium was renewed daily thereafter. Cells were cultured for an additional 14 days to allow full differentiation. The accumulated mucin at the apical surface of the cells was removed by washing with phosphate-buffered saline, pH 7.2. To collect the baseline mucin secretion, cells were incubated for 30 min with medium alone and secreted mucin in the apical medium was collected, and quantitated by ELISA. To determine the mucin hypersecretion induced by a mucin secretagogue, cells were exposed to medium containing 0.5 μM phorbol myristate acetate, (PMA) for 30 min. and mucin was collected and quantitated by ELISA. […] Six wells were used for each test peptides and for each control. Secreted mucin in the apical medium was collected and quantitated by sandwich ELISA method using alkaline phosphatase-conjugated mucin (MUC5A) specific antibody (Zymed Laboratories, San Francisco, Calif.).

Ac-GAQFSKTAAK-OH [Ac-peptide 106]
Inhibition of ATP-induced mucin hypersecretion ([1]; calculated pulmonary deposition 0.38 mg/kg body weight): 30% | Inhibition of ATP-induced mucin hypersecretion ([1]; calculated pulmonary deposition 1.1 mg/kg body weight): 67% | Block of PMA-induced increase in mucin secretion (HBE1 cells): 100%
